The results in this text go back to a melting point compilation (Tetko et al.).

Take `Cc1ccc(C)c(-n2nnnc2S)c1`: the melting point lay within 129 to 131 °C.

In turn, `O=C(O)c1nnn(-c2ccccc2)c1C(F)(F)F` returned a melting point of 132 to 134 °C.

Compound `Nc1cnc(Cl)cc1C(=O)O` registered a melting point of 289 to 291 °C.

`CCc1nc(NC(=O)CCl)sc1C` had a melting point of 124 to 126 °C.

`Cn1cnnc1Sc1ccc(N)cc1Cl` showed a melting point of 168 to 170 °C.

The compound `CN1CCN(S(=O)(=O)c2ccc3c(c2)CCN3)CC1` registered a melting point of 176 to 178 °C.

Compound `NC(=NO)c1ccc(Oc2ccc(F)cc2)nc1` registered a melting point of 194 to 196 °C.

For the compound `N#CCC(=O)c1ccc(C(F)(F)F)cc1`, the melting point lay within 48 to 50 °C.

Compound `CC1CCC(Nc2ccccn2)CC1` (stereo unspecified) returned a melting point of 149 to 151 °C.

Compound `O=S(=O)(c1ccc2c(c1)CCCC2)N1CCNCC1` displayed a melting point of 110 to 112 °C.

On to `CC1=C(C)C(=O)NC1=O`, for which the melting point is 113 to 115 °C.

`NC1CCN(c2ccccc2F)C1=O` (stereo unspecified) had a melting point of 67 to 69 °C.

Consider `CSc1ccc(OC(C)C(=O)O)cc1` (stereo unspecified), for which the melting point was in the range of 94 to 96 °C.

In turn, `CC(Cl)C(=O)NC1CCCC(C)C1C` (stereo unspecified) displayed a melting point of 163 to 165 °C.

With `Cc1ccc(S(=O)(=O)NCC2CCCO2)cc1C(=O)O` (stereo unspecified), the melting point was in the range of 160 to 162 °C.

On to `O=C(Nc1cc(F)ccc1C(=O)O)c1ccoc1`, for which the melting point was 253 to 255 °C.

Turning to `CC(Cl)C(=O)N1CCCC(C(N)=O)C1` (stereo unspecified), the melting point fell in the range of 114 to 116 °C.

For the compound `NC(=O)C1(c2cccc(Cl)c2)CC1`, the melting point lay in the range of 99 to 101 °C.

As for `O=[N+]([O-])c1cc(Br)cc(S(=O)(=O)Cl)c1`, the melting point was 47 to 49 °C.

`Cc1cc(S(=O)(=O)Cl)ccc1[N+](=O)[O-]` yielded a melting point of 48 to 50 °C.

Consider `CC1(C)COC2(CCNCC2)OC1`, for which the melting point fell in the range of 62 to 64 °C.

`COc1ncncc1N` had a melting point of 71 to 73 °C.

Turning to `CC(C)Cn1cnc(S(N)(=O)=O)c1`, the melting point is 144 to 146 °C.

`CNC(=O)c1ccc(N)cc1Cl` yielded a melting point of 147 to 149 °C.

Consider `NNc1cnccn1`, for which the melting point lay within 109 to 113 °C.

Consider `CS(=O)(=O)c1cccc(C(=O)NN)c1`, for which the melting point was 144 to 146 °C.

`Nc1cccc(NC(=O)CCn2ccnc2)c1` had a melting point of 125 to 127 °C.

With `COc1ccc(NS(=O)(=O)Cc2ccc(N)cc2)cc1`, the melting point is 153 to 155 °C.

Regarding `O=C1CSC(=Cc2nc3ccccc3s2)N1`, the melting point fell in the range of 186 to 188 °C.

For the compound `CC1(C)Nc2ccccc2NC1=O`, the melting point was in the range of 179 to 181 °C.

Consider `O=C(O)Cc1ccc([N+](=O)[O-])cc1Br`, for which the melting point fell in the range of 164 to 166 °C.

With `COc1ccccc1Nc1nc(-c2ccc(C)cc2)cs1`, the melting point lay within 143 to 145 °C.

The compound `Nc1c(-c2ccccc2)ncn1N` registered a melting point of 126 to 128 °C.

On to `CCC1(c2cccc(Cl)c2)NC(=O)NC1=O` (stereo unspecified), for which the melting point fell in the range of 159 to 161 °C.

`COc1ccc(-c2csc3nc(C)[nH]c(=O)c23)cc1OC` displayed a melting point of 249 to 251 °C.

For the compound `O=C(c1ccccc1)c1ccc(CBr)cc1`, the melting point is 109 to 112 °C.

Turning to `c1ccc(CNc2ccc(N3CCOCC3)cc2)nc1`, the melting point lay within 132 to 134 °C.

`CC(=O)SC(C(=O)O)c1ccccc1` (stereo unspecified) registered a melting point of 79 to 81 °C.

In turn, `CCCCn1c(=O)[nH]c(=O)c2c1nc(CCl)n2CC` came in with a melting point of 172 to 174 °C.

`COc1cc(F)c(F)cc1[N+](=O)[O-]` showed a melting point of 54 to 56 °C.

In the case of `Nc1ccc(S(=O)C(F)(F)F)cc1` (stereo unspecified), the melting point was 76 to 78 °C.

The compound `CCOC(=O)c1c(C)[nH]c(C(=O)C(C)Cl)c1C` (stereo unspecified) returned a melting point of 148 to 150 °C.

In the case of `O=C1c2ccccc2C(=O)N1CC1(CO)CCCC1`, the melting point was 83 to 85 °C.

Take `O=C(O)C=NNc1ccc(F)cc1`: the melting point is 87 to 89 °C.

`CCc1ccc(C(=O)O)cc1N`: the melting point is 146 to 148 °C.

`COC(=O)c1cn(C)c(-c2ccc(N)cc2)c1C(=O)OC`: the melting point is 181 to 183 °C.

For `CC(C)(C)OC(=O)NNC(=O)OC(C)(C)C`, the melting point lay in the range of 123 to 126 °C.

Regarding `FC(F)Sc1nc2ccccc2[nH]1`, the melting point was < 17 °C.

In turn, `Fc1cccc(CCNC2=NCCS2)c1` returned a melting point of 74 to 76 °C.

Compound `O=C1CC(C(=O)O)CS1` (stereo unspecified) had a melting point of 108 to 110 °C.

Consider `CC(C)S(=O)(=O)c1ccc(Cl)c(C(=O)O)c1`, for which the melting point was 129 to 131 °C.

In the case of `CSc1ccc(CNc2ccc3[nH]c(C)nc3c2)cc1`, the melting point is 172 to 174 °C.

Compound `Cc1ccc(OCc2nc(N)no2)cc1` had a melting point of 144 to 146 °C.

For `Clc1ccc(OCCBr)c(Br)c1`, the melting point lay in the range of 30 to 32 °C.

On to `Nn1c(S)nnc1COc1ccccc1`, for which the melting point lay in the range of 163 to 167 °C.

`CCCCNC(=O)CC(N)=NO` showed a melting point of 95 to 99 °C.

In turn, `CC(C)CC(C(=O)O)N1C(=O)C2CC=CCC2C1=O` (stereo unspecified) yielded a melting point of 135 to 137 °C.

`O=C(O)CCCn1ccccc1=O` displayed a melting point of 121 to 123 °C.

As to `NC(=S)c1cccc(-c2nnc(N)o2)c1`, the melting point was 259 to 261 °C.

The compound `NC(=NO)c1ccc(O)cc1` registered a melting point of 152 to 156 °C.

For the compound `O=C(CCl)N1c2ccccc2SCC1c1ccccc1` (stereo unspecified), the melting point is 162 to 164 °C.

For `CC(C)CC(Cc1cccc(Br)c1)C(=O)O` (stereo unspecified), the melting point fell in the range of 66 to 68 °C.

On to `Cc1cccc(-n2c(C)cc(C(=O)O)c2C)c1`, for which the melting point was 194 to 196 °C.

`Nc1nnc(-c2cccc(Br)c2)[nH]1`: the melting point lay within 219 to 221 °C.

In turn, `O=C(O)CN1C(=O)CCCc2sccc21` returned a melting point of 138 to 140 °C.

`CN(C)C=C1C(=O)CCC1=O`: the melting point fell in the range of 89 to 91 °C.

Take `Cc1nc(=O)c2cnn(-c3ccc([N+](=O)[O-])cc3)c2[nH]1`: the melting point was 341 to 343 °C.

`Nc1cc(C2CCCCC2)no1` had a melting point of 127 to 129 °C.

`Cc1cccc2[nH]c(C(=O)O)cc12` showed a melting point of 216 to 218 °C.

In turn, `O=C(O)C1SCCc2ccccc21` (stereo unspecified) registered a melting point of 130 to 132 °C.

As for `Cc1c(C=O)c2ccccn2c1C=O`, the melting point is 214 to 216 °C.

Consider `Nc1ccccc1C(=O)NCc1ccccc1`, for which the melting point is 125 to 127 °C.

`COC(=O)C1CCN(C(=O)c2ccc(Cl)c(Cl)c2)CC1` returned a melting point of 103 to 105 °C.

As for `COC(=O)c1n[nH]c(C)c1Cl`, the melting point is 129 to 131 °C.

`O=Cc1c[nH]c2cccc(F)c12` showed a melting point of 169 to 171 °C.

For the compound `CCOc1ccc(NC(=O)CCl)cc1`, the melting point fell in the range of 149 to 151 °C.

In turn, `O=Cc1ccccc1-n1cncn1` yielded a melting point of 113 to 115 °C.

Turning to `COC(=O)c1c(CC(C)C)csc1N`, the melting point fell in the range of 66 to 68 °C.

In the case of `O=Cc1cc(Cl)cc(Cl)c1OC(F)F`, the melting point lay within 51 to 53 °C.

The compound `Cn1ccnc1Sc1ccc(F)cc1N` yielded a melting point of 136 to 138 °C.

On to `Brc1cccc(-c2ncc[nH]2)c1`, for which the melting point lay in the range of 129 to 131 °C.

As for `CCn1cc(C(=O)C(=O)O)cn1`, the melting point fell in the range of 129 to 131 °C.

Turning to `Cc1ccc(C(=O)O)c(O)c1O`, the melting point was 204 to 206 °C.

Take `O=C(CCl)Nc1ccc(N2CCc3ccccc32)cc1`: the melting point was 167 to 169 °C.

`O=C(O)c1csc2c1CCCC2` came in with a melting point of 159 to 161 °C.

Consider `Nc1cccc(S(=O)(=O)N2CCCC2)c1`, for which the melting point fell in the range of 156 to 158 °C.

As to `CN(C)c1ccc(-n2ccnc2S)cc1`, the melting point was in the range of 249 to 251 °C.

The compound `CCOC(=O)C1=C(C)NC(=O)NC1CCl` (stereo unspecified) gave a melting point of 169 to 171 °C.

Compound `CC1CC(C)CN(C(=O)c2ccccc2N)C1` (stereo unspecified) came in with a melting point of 97 to 99 °C.

For `Nc1ccc(Oc2ccc(S(N)(=O)=O)cc2)cc1`, the melting point is 196 to 198 °C.

For `O=C(CNCc1ccc(Cl)cc1)Nc1ccccc1F`, the melting point was 90 to 92 °C.

`Cc1ccc(C(NC(=O)CCl)c2cccs2)cc1` (stereo unspecified) had a melting point of 110 to 112 °C.

`Nc1cccc(Sc2ccc(Cl)cc2)c1` displayed a melting point of 58 to 60 °C.

Turning to `CC(=O)NCCc1cc(C(=O)CCl)ccc1F`, the melting point lay in the range of 97 to 99 °C.

Consider `NCC1(O)CCOCC1`, for which the melting point lay in the range of 65 to 67 °C.

Turning to `O=S1(=O)CCCN1c1ccc(Br)cc1F`, the melting point fell in the range of 89 to 91 °C.

On to `COc1ccc(CCNC(=O)CC(=O)NCCc2ccc(OC)cc2)cc1`, for which the melting point lay in the range of 161 to 163 °C.

As for `Cc1cc2occ(CC(=O)O)c2cc1C(C)C`, the melting point is 141 to 143 °C.

`CC1CC(C(=O)O)CCC1=O` (stereo unspecified) came in with a melting point of 69 to 71 °C.

Consider `N#Cc1ccc(CN2CCc3ccccc32)cc1`, for which the melting point fell in the range of 76 to 78 °C.

The compound `Cc1cc(C(=O)O)c2c(Br)cccc2n1` showed a melting point of 232 to 234 °C.

For the compound `CC(O)(C(=O)O)c1cccc(F)c1` (stereo unspecified), the melting point lay in the range of 99 to 101 °C.

Regarding `O=C(O)c1coc2ccccc12`, the melting point was in the range of 150 to 152 °C.

The compound `CN(C)S(=O)(=O)c1ccc(C(=O)O)cc1` had a melting point of 249 to 251 °C.

Take `CCOC(=O)C(=O)c1ncc(Cl)n1C`: the melting point fell in the range of 46 to 48 °C.

With `CS(=O)(=O)c1ccc(Cl)c(S(=O)(=O)Cl)c1`, the melting point was 141 to 143 °C.

`O=c1cc(CCl)nc2ccc(Br)cn12` returned a melting point of 172 to 174 °C.

On to `CC1(c2ccc(Cl)c(Cl)c2)NC(=O)NC1=O` (stereo unspecified), for which the melting point lay within 203 to 207 °C.

In turn, `COC(=O)CNc1ncccc1[N+](=O)[O-]` gave a melting point of 104 to 106 °C.

`O=S1(=O)CC(O)C(NCCO)C1` (stereo unspecified) returned a melting point of 115 to 117 °C.

Consider `O=C(O)c1noc(-c2cc(F)cc(F)c2)n1`, for which the melting point fell in the range of 136 to 138 °C.

In turn, `CSCC[C@H](N)C(=O)NO` came in with a melting point of 148 to 150 °C.

In turn, `O=C(O)c1cccc(C(=O)N2CCS(=O)(=O)CC2)n1` registered a melting point of 217 to 219 °C.

As to `Cc1ccc(C)c(-c2nc(N)sc2C)c1`, the melting point fell in the range of 92 to 94 °C.

Regarding `Cn1c(C(F)(F)F)nc2cc(C(=O)O)ccc21`, the melting point lay within 254 to 256 °C.

For `O=C(O)CC1=NN(c2ccc(Cl)nn2)C(=O)C1`, the melting point fell in the range of 183 to 185 °C.

`Cc1ccc(N)cc1S(=O)(=O)N1CCOCC1`: the melting point lay in the range of 186 to 188 °C.

Compound `O=C(O)C(c1ccc(Br)cc1)N1CCCC1` (stereo unspecified) gave a melting point of 214 to 216 °C.

As to `Cc1ccc(N2C(=O)NC(=O)C2C)cc1` (stereo unspecified), the melting point fell in the range of 110 to 112 °C.

For `Cc1nc(NC(=O)CCl)sc1C`, the melting point lay within 144 to 146 °C.

Turning to `CC(=O)Nc1[nH]c(=O)ccc1[N+](=O)[O-]`, the melting point was 182 to 184 °C.
